Patent US20220151230A1, “SPECIFICALLY SUBSTITUTED 3-(2-HALOGEN-6-ALKYL-4-PROPINYLPHENYL)-3-PYRROLIN-2-ONES AND TO THE USE THEREOF AS HERBICIDES” (Bayer Aktiengesellschaft, priority 2019, published 2022)

How the values were obtained:
SETVI [1] = assay: Pre-emergence herbicidal effect against SETVI; assay type: in vivo, Setaria viridis; settings: 320 g/ha, scored visually after 3 weeks vs untreated controls, 100% = plants have died
Text: (§1) Seeds of monocotyledonous and dicotyledonous weed plants and crop plants are laid out in sandy loam soil in wood-fiber pots and covered with soil. The compounds of the invention, formulated in the form of wettable powders (WP) or as emulsion concentrates (EC), are then applied to the surface of the covering soil as aqueous suspension or emulsion at a water application rate equating to 600 to 800 L/ha with addition of 0.2% wetting agent.
(§2) After the treatment, the pots are placed in a greenhouse and kept under good growth conditions for the trial plants. The damage to the test plants is scored visually after a test period of 3 weeks by comparison with untreated controls (herbicidal activity in percent (%): 100% activity=the plants have died, 0% activity=like control plants).

SETVI [2] = assay: Post-emergence herbicidal effect against SETVI; assay type: in vivo, Setaria viridis; settings: one-leaf stage, 80 g/ha, assessed visually after about 3 weeks vs untreated controls, 100% = plants have died
Protocol: (§3) Seeds of monocotyledonous and dicotyledonous weed and crop plants are laid out in sandy loam soil in wood-fiber pots, covered with soil and cultivated in a greenhouse under good growth conditions. 2 to 3 weeks after sowing, the test plants are treated at the one-leaf stage. The compounds of the invention, formulated in the form of wettable powders (WP) or as emulsion concentrates (EC), are then sprayed onto the green parts of the plants as aqueous suspension or emulsion at a water application rate equating to 600 to 800 l/ha with addition of 0.2% wetting agent. After the test plants have been left to stand in the greenhouse under optimal growth conditions for about 3 weeks, the action of the preparations is assessed visually in comparison to untreated controls (herbicidal action in percent (%): 100% activity=the plants have died, 0% activity=like control plants).

VIOTR = assay: Pre-emergence herbicidal effect against VIOTR; assay type: in vivo, Viola tricolor; settings: 320 g/ha, scored visually after 3 weeks vs untreated controls, 100% = plants have died
Text: as §1, §2

ALOMY [3] = assay: Pre-emergence herbicidal effect against ALOMY; assay type: in vivo, Alopecurus myosuroides; settings: 320 g/ha, scored visually after 3 weeks vs untreated controls, 100% = plants have died
Text: as §1, §2

AVEFA [4] = assay: Post-emergence herbicidal effect against AVEFA; assay type: in vivo, Avena fatua; settings: one-leaf stage, 80 g/ha, assessed visually after about 3 weeks vs untreated controls, 100% = plants have died
Protocol: as §3

DIGSA [5] = assay: Pre-emergence herbicidal effect against DIGSA; assay type: in vivo, Digitaria sanguinalis; settings: 320 g/ha, scored visually after 3 weeks vs untreated controls, 100% = plants have died
Text: as §1, §2

ECHCG [6] = assay: Pre-emergence herbicidal effect against ECHCG; assay type: in vivo, Echinochloa crus-galli; settings: 320 g/ha, scored visually after 3 weeks vs untreated controls, 100% = plants have died
Text: as §1, §2

AVEFA [7] = assay: Pre-emergence herbicidal effect against AVEFA; assay type: in vivo, Avena fatua; settings: 320 g/ha, scored visually after 3 weeks vs untreated controls, 100% = plants have died
Text: as §1, §2

ALOMY [8] = assay: Post-emergence herbicidal effect against ALOMY; assay type: in vivo, Alopecurus myosuroides; settings: one-leaf stage, 80 g/ha, assessed visually after about 3 weeks vs untreated controls, 100% = plants have died
Protocol: as §3

LOLRI [9] = assay: Post-emergence herbicidal effect against LOLRI; assay type: in vivo, Lolium rigidum; settings: one-leaf stage, 80 g/ha, assessed visually after about 3 weeks vs untreated controls, 100% = plants have died
Protocol: as §3

LOLRI [10] = assay: Pre-emergence herbicidal effect against LOLRI; assay type: in vivo, Lolium rigidum; settings: 320 g/ha, scored visually after 3 weeks vs untreated controls, 100% = plants have died
Text: as §1, §2

ECHCG [11] = assay: Post-emergence herbicidal effect against ECHCG; assay type: in vivo, Echinochloa crus-galli; settings: one-leaf stage, 80 g/ha, assessed visually after about 3 weeks vs untreated controls, 100% = plants have died
Protocol: as §3

DIGSA [12] = assay: Post-emergence herbicidal effect against DIGSA; assay type: in vivo, Digitaria sanguinalis; settings: one-leaf stage, 80 g/ha, assessed visually after about 3 weeks vs untreated controls, 100% = plants have died
Protocol: as §3

Row | Compound | Pre-emergence action [%] against SETVI (SETVI [1]) | Post-emergence action [%] against SETVI (SETVI [2]) | Pre-emergence action [%] against VIOTR (VIOTR) | Pre-emergence action [%] against ALOMY (ALOMY [3]) | Post-emergence action [%] against AVEFA (AVEFA [4]) | Pre-emergence action [%] against DIGSA (DIGSA [5]) | Pre-emergence action [%] against ECHCG (ECHCG [6]) | Pre-emergence action [%] against AVEFA (AVEFA [7]) | Post-emergence action [%] against ALOMY (ALOMY [8]) | Post-emergence action [%] against LOLRI (LOLRI [9]) | Pre-emergence action [%] against LOLRI (LOLRI [10]) | Post-emergence action [%] against ECHCG (ECHCG [11]) | Post-emergence action [%] against DIGSA (DIGSA [12])
1 | CC#Cc1cc(C)c(C2=C(O)C3(CCCC(OCCC)C3)NC2=O)c(Br)c1 (stereo not drawn) [Example D5] | 100% | 100% | 100% | 100% | 100% | 100% | 100% | 100% | 100% | 100% | 100% | 100% | 100%
2 | CC#Cc1cc(C)c(C2=C(O)C3(CCCC(OCCOC)C3)NC2=O)c(Br)c1 (stereo not drawn) [Example D6] | 100% | 100% | 100% | 100% | 100% | 100% | 100% | 100% | 100% | 100% | 100% | 100% | 100%
3 | CC#Cc1cc(C)c(C2=C(O)C3(CCCC(OCC(C)C)C3)NC2=O)c(Cl)c1 (stereo not drawn) [Example D9] | 100% | 100% | 100% | 100% | 90% | 100% | 100% | 100% | 100% | 90% | 100% | 100% | 90%
4 | CC#Cc1cc(Br)c(C2=C(O)C3(CCCC(OCCOC)C3)NC2=O)c(C2CC2)c1 (stereo not drawn) [Example D11] | 100% | 100% | 100% | 100% |  | 100% | 100% | 100% | 100% | 100% | 100% | 100% | 100%
5 | CC#Cc1cc(Cl)c(C2=C(O)C3(CCC(OCC)CC3)NC2=O)c(CC)c1 (stereo not drawn) [Example E12] | 100% | 100% | 100% | 90% |  | 100% | 100% | 90% |  |  | 100% | 100% | 
6 | CC#Cc1cc(Cl)c(C2=C(O)C3(CCC(OC)CC3)NC2=O)c(CC)c1 (stereo not drawn) [Example E20] | 100% | 100% | 100% | 100% | 90% | 100% | 100% | 100% |  | 80% | 90% | 100% | 100%
7 | CC#Cc1cc(Cl)c(C2=C(O)C3(CCC(OC)CC3)NC2=O)c(C2CC2)c1 (stereo not drawn) [Example E24] | 100% | 100% | 100% | 100% | 100% | 100% | 100% | 100% | 100% | 100% | 100% | 100% | 
8 | CC#Cc1cc(Br)c(C2=C(O)C3(CCC(OC)CC3)NC2=O)c(CC)c1 (stereo not drawn) [Example E25] |  | 90% | 80% |  |  |  |  |  | 90% |  |  |  | 
9 | CC#Cc1cc(Br)c(C2=C(O)C3(CCC(OC)CC3)NC2=O)c(C2CC2)c1 (stereo not drawn) [Example E26] | 100% | 100% | 90% | 100% |  | 100% | 100% | 90% | 100% | 100% | 100% | 100% | 100%
10 | CC#Cc1cc(Cl)c(C2=C(OC(=O)OC)C3(CCC(OC)CC3)NC2=O)c(CC)c1 (stereo not drawn) [Example P24] | 100% | 100% |  | 100% | 90% | 100% | 90% | 100% | 100% |  | 100% | 100% | 90%
11 | CC#Cc1cc(C)c(C2=C(OC(=O)OCC)C3(CCCC(OCCOC)C3)NC2=O)c(Br)c1 (stereo not drawn) [Example Q4] | 100% | 100% |  | 100% | 90% | 100% | 100% | 100% | 100% | 100% | 100% | 100% | 
12 | CC#Cc1cc(C)c(C2=C(OC(=O)OC)C3(CCCC(OCC(C)C)C3)NC2=O)c(Cl)c1 (stereo not drawn) [Example Q6] | 100% | 100% |  | 100% | 100% | 100% | 100% | 90% | 100% | 100% | 100% | 100% | 100%
13 | CC#Cc1cc(C)c(C2=C(OC(=O)OCC)C3(CCCC(OCC(C)C)C3)NC2=O)c(Cl)c1 (stereo not drawn) [Example Q8] | 100% | 100% |  | 100% | 100% | 100% | 100% | 100% | 100% | 90% | 100% | 100% | 
